pIC50: −log10 of the molar value.
Biological target: Src kinase (Homo sapiens, UniProt P12931)
Test: ADP-Glo kinase assay, […] Src, […] ATP, peptide substrate

Src kinase, sequence (P12931 2-536): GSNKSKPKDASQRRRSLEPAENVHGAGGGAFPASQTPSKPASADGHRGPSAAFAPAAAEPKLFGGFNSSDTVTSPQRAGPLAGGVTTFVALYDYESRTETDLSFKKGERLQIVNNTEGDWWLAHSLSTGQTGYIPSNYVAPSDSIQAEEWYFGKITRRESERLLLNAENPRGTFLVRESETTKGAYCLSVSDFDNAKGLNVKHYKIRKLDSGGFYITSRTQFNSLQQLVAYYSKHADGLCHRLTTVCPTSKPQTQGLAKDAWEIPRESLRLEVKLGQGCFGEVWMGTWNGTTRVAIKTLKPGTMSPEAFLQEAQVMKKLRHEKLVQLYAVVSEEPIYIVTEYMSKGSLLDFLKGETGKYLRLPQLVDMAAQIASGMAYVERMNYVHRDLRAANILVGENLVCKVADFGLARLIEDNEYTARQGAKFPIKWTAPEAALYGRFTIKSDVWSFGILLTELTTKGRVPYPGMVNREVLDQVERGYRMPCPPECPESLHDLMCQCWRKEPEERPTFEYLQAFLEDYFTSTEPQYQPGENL

## Cc1nc(Nc2ncc(C(=O)Nc3cc(NC(=O)c4cccc(C(F)(F)F)c4)ccc3C)s2)cc(N2CCN(CCO)CC2)n1 [UM-164]
  pIC50: 6.49

From paper PMC13397736, “LEP-AD: language embedding of proteins and attention to drugs predicts drug-target interactions” (Journal of Cheminformatics, 2026)
